“Also recorded” adds a separate entry of the source.
System: Drosophila melanogaster
Assay: Effects of methylphenidate on rest (sleep) in flies, Drosophila Activity Monitoring System
Assay type: in vivo
Details: wild-type Canton-S virgin female flies; 0.5 mg/ml methylphenidate dissolved in the food; transferred two hours before lights-off; rest over the following 14 hours vs baseline; p<0.05
Description: Wild-type Canton-S (CS) flies were placed into a 50 ml vial containing yeast, dark corn syrup and agar food. Each colony was housed at 25° C. with a relative humidity of 50% in a Forma Scientific incubator. The flies were maintained on a 12:12 light/dark cycle with “lights-on” commencing at 8:00 am and “lights-off” commencing at 8:00 pm to yield darkness. Virgin females were collected and maintained in 50 ml vials for one day. During the second day, flies were individually placed into glass tubes (65 mm in length, 5 mm I.D.) containing about lomm of fresh food and the tubes were placed into the Drosophila Activity Monitoring System (Trikinetics, Waltham, Mass.). The flies remained undisturbed for the following 48 hours. The amount and distribution of rest was evaluated during the third day to ensure that the flies had adapted to the apparatus as previously described in Shaw et. al., Science 287:1834-1837 (2000). On day 4, two hours before lights-off, flies were transferred to fresh glass tubes containing only standard laboratory food or to tubes with 0.5 mg/ml methylphenidate that had been dissolved in the food. The amount and distribution of rest during the following 14 hours was then evaluated.

COC(=O)C(c1ccccc1)C1CCCCN1 (stereo not shown) [methylphenidate]
amount and distribution of rest: rest was significantly reduced compared to baseline; also recorded: significant and substantial decrease in rest
